“Also recorded” adds a separate entry of the source.
Legend:
4T1 tumor cells [1] = assay: Metastatic outgrowth of disseminated 4T1 tumor cells, mice euthanized 72h after last injection; type: in vivo
From the text: Mice were sacrificed 3 days after the last dose injection to check the metastatic colonization of luciferase expressing 4T1 tumor cells. […] Results are presented as mean±SD (3 mice in each group).
(§1) Murine 4T1 cells were originally isolated from a spontaneous mammary tumor in the BALB/c strain and have been reported to show characteristics of human triple-negative breast cancer (TNBC) subtype. We first implanted 50,000 4T1 tumor cells into mammary fat pad of syngeneic mice and started treatment one-week post-implantation. After 3 doses by injection (one dose/week), the treatment was terminated and mice were followed for tumor growth and survival. […] Second set of mice euthanized to examine metastatic colonization of tumor cells in the lungs 72h after the last injection.

4T1 tumor cells [2] = assay: 4T1 mammary fat pad tumor growth and survival after 3 weekly doses; type: in vivo, BALB/c mice
Procedure: Highly aggressive 4T1 tumor cells were implanted into 4th mammary fat pad of BALB/c mice and treatment was started one week post-implantation and total 3 doses (one dose/week) were injected. […] Results are presented as mean±SD (3-5 mice in each group).
as §1

Compound: CC(=O)O[C@H]1C(=O)[C@@]2(C)[C@H]([C@H](OC(=O)c3ccccc3)[C@]3(O)C[C@H](OC(=O)[C@H](O)[C@@H](NC(=O)c4ccccc4)c4ccccc4)C(C)=C1C3(C)C)[C@]1(OC(C)=O)CO[C@@H]1C[C@@H]2O [naked paclitaxel, paclitaxel]
- metastatic colonization of tumor cells in the lungs (ex vivo lung imaging) (4T1 tumor cells [1]; 72h after the last injection, 3 mice in each group, FIG. 2d-e): micro metastatic colonization; also recorded: only micro metastases
- tumor weight (4T1 tumor cells [1]; IP-injection, 72h after the last injection, FIG. 2a-b): decreased the tumor weight but this decrease was not significant; also recorded: decrease the tumor weight
- signal intensity of luciferase in lungs, difference between groups (4T1 tumor cells [1]; ex vivo lung imaging, FIG. 2d-e): not significantly different
- survival compared with tumor bearing mice that did not have any treatment (4T1 tumor cells [2]; 3 doses, one dose/week): longer
- tumor size, difference between groups (4T1 tumor cells [2]; up to 42 days, FIG. 1b): no significant difference
